Source: ChEMBL document CHEMBL1201862, “PubChem BioAssay data set” (2004)
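1) Cells in 96-well plates. 2) Compound, 48 h, 5 concentrations. 3) Linear interpolation between surrounding doses. 4) Unreached endpoint = highest concentration. The concentration for 50% growth inhibition is given as GI50.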 The source made the active and inactive calls. No stated cut-off is given here; in the data, active = GI50 up to about 1.1 µM and inactive = higher.

Experiments:
Assay in all cases: NCI anticancer screen, dose series, 48 h
NCI/ADR-RES = tested on: NCI/ADR-RES
HCC 2998 = tested on: HCC 2998
HOP-62 = tested on: HOP-62
NCI-H226 = tested on: NCI-H226
MOLT-4 = tested on: MOLT-4
MDA-N = tested on: MDA-N
U-251 = tested on: U-251
SN12C = tested on: SN12C
OVCAR-4 = tested on: OVCAR-4
DU-145 = tested on: DU-145
OVCAR-3 = tested on: OVCAR-3
HL-60 = tested on: HL-60
COLO 205 = tested on: COLO 205
SNB-75 = tested on: SNB-75
SF-295 = tested on: SF-295
Malme-3M = tested on: Malme-3M
SK-OV-3 = tested on: SK-OV-3
RXF 393 = tested on: RXF 393
CAKI-1 = tested on: CAKI-1

Measured: GI50

CCOC(=O)N1CCN(c2c(N)nc(C)nc2O)CC1
inactive: NCI/ADR-RES > 100 µM | HCC 2998 > 100 µM | HOP-62 > 100 µM | NCI-H226 > 100 µM | MOLT-4 > 100 µM | MDA-N > 100 µM | U-251 > 100 µM | SN12C > 100 µM | OVCAR-4 > 100 µM | DU-145 > 100 µM | OVCAR-3 > 100 µM | HL-60 > 100 µM | COLO 205 > 100 µM | SNB-75 > 100 µM | SF-295 > 100 µM | Malme-3M > 100 µM

Cc1c(S(=O)(=O)N/C(=N\O)Nc2ccc(Cl)cc2)sc2ccc(Cl)cc12
inactive: SK-OV-3 15.6 µM | NCI/ADR-RES 18 µM | HOP-62 17.7 µM | NCI-H226 17.7 µM | MOLT-4 27.2 µM | MDA-N 18.2 µM | U-251 16.1 µM | SN12C 20.3 µM | OVCAR-4 16.9 µM | DU-145 23.3 µM | OVCAR-3 11.3 µM | HL-60 19.3 µM | COLO 205 15.9 µM | SNB-75 18.7 µM | SF-295 17.6 µM | Malme-3M 18.5 µM | RXF 393 22.3 µM | CAKI-1 17.5 µM

CCN(CCCN(CC)C(=O)Nc1c(C)cccc1C)C(=O)Nc1c(C)cccc1C
inactive: SK-OV-3 > 100 µM | NCI/ADR-RES > 100 µM | HCC 2998 > 100 µM | HOP-62 > 100 µM | NCI-H226 > 100 µM | MOLT-4 > 100 µM | MDA-N > 100 µM | U-251 > 100 µM | SN12C > 100 µM | OVCAR-4 > 100 µM | DU-145 > 100 µM | COLO 205 > 100 µM | SNB-75 40.3 µM | SF-295 > 100 µM | Malme-3M > 100 µM | RXF 393 43.1 µM | CAKI-1 > 100 µM

COc1cc(C2SCC(=O)N2c2ccccn2)cc(OC)c1OC (configuration not stated)
inactive: SK-OV-3 > 100 µM | NCI/ADR-RES 39.6 µM | HCC 2998 > 100 µM | NCI-H226 > 100 µM | MOLT-4 > 100 µM | MDA-N 19 µM | U-251 > 100 µM | SN12C > 100 µM | OVCAR-4 > 100 µM | DU-145 > 100 µM | OVCAR-3 > 100 µM | HL-60 58.7 µM | COLO 205 > 100 µM | SF-295 81.1 µM | CAKI-1 > 100 µM

COc1ccc(CCN2CCN(CCCc3ccccc3)CC2)cc1
inactive: SK-OV-3 > 100 µM | NCI/ADR-RES 83 µM | HCC 2998 69.3 µM | HOP-62 > 100 µM | NCI-H226 > 100 µM | MOLT-4 92 µM | MDA-N > 100 µM | U-251 > 100 µM | SN12C > 100 µM | OVCAR-4 71.6 µM | DU-145 > 100 µM | OVCAR-3 80 µM | HL-60 > 100 µM | COLO 205 22.9 µM | SF-295 > 100 µM | Malme-3M > 100 µM | CAKI-1 > 100 µM

Clc1ccc(Cl)c(Nc2ccnc(SCc3ccccc3)n2)c1
inactive: SK-OV-3 > 100 µM | NCI/ADR-RES > 100 µM | HOP-62 > 100 µM | MOLT-4 > 100 µM | MDA-N > 100 µM | U-251 > 100 µM | SN12C > 100 µM | OVCAR-4 > 100 µM | DU-145 > 100 µM | OVCAR-3 > 100 µM | COLO 205 > 100 µM | SNB-75 > 100 µM | SF-295 > 100 µM | Malme-3M > 100 µM | RXF 393 20.4 µM | CAKI-1 > 100 µM

CC(C)=C=CP(=O)(O)c1ccccc1
inactive: SK-OV-3 > 100 µM | NCI/ADR-RES > 100 µM | HCC 2998 > 100 µM | HOP-62 > 100 µM | NCI-H226 > 100 µM | MDA-N > 100 µM | U-251 > 100 µM | SN12C > 100 µM | OVCAR-4 > 100 µM | DU-145 > 100 µM | OVCAR-3 > 100 µM | HL-60 > 100 µM | COLO 205 > 100 µM | SNB-75 > 100 µM | SF-295 > 100 µM | Malme-3M > 100 µM | CAKI-1 > 100 µM

O=[N+]([O-])c1ccc(/N=N/c2c(O)ccc3cc(S(=O)(=O)O)cc(S(=O)(=O)O)c23)cc1
inactive: SK-OV-3 > 100 µM | NCI/ADR-RES > 100 µM | HOP-62 > 100 µM | NCI-H226 > 100 µM | MOLT-4 > 100 µM | MDA-N > 100 µM | U-251 > 100 µM | SN12C > 100 µM | OVCAR-4 > 100 µM | DU-145 > 100 µM | OVCAR-3 > 100 µM | COLO 205 > 100 µM | SNB-75 > 100 µM | SF-295 > 100 µM | Malme-3M > 100 µM | RXF 393 > 100 µM | CAKI-1 > 100 µM

CC(C)C1CN1CC(O)Cn1ccnc1[N+](=O)[O-] (configuration not stated)
inactive: SK-OV-3 > 100 µM | NCI/ADR-RES > 100 µM | HCC 2998 > 100 µM | HOP-62 > 100 µM | NCI-H226 > 100 µM | MOLT-4 > 100 µM | MDA-N > 100 µM | U-251 > 100 µM | SN12C > 100 µM | OVCAR-4 > 100 µM | DU-145 > 100 µM | OVCAR-3 > 100 µM | HL-60 > 10 µM | COLO 205 > 100 µM | SNB-75 > 100 µM | SF-295 > 100 µM | Malme-3M 62.2 µM | CAKI-1 > 100 µM

Oc1cc(CF)nc(S)n1
inactive: NCI/ADR-RES > 100 µM | HCC 2998 > 100 µM | HOP-62 > 100 µM | NCI-H226 > 100 µM | MOLT-4 > 100 µM | MDA-N > 100 µM | U-251 > 100 µM | SN12C > 100 µM | OVCAR-4 > 100 µM | DU-145 > 100 µM | OVCAR-3 > 100 µM | SNB-75 > 100 µM | SF-295 > 100 µM | Malme-3M > 100 µM | RXF 393 > 100 µM | CAKI-1 > 100 µM

CC(NC(=O)C(Cc1ccc(OC(=O)c2ccccc2)cc1)NC(=O)OC(C)(C)C)C(=O)NCC(=O)NC(Cc1ccccc1)C(=O)NN (configuration not stated)
inactive: SK-OV-3 > 100 µM | NCI/ADR-RES > 100 µM | HOP-62 83 µM | NCI-H226 > 100 µM | MOLT-4 17.9 µM | MDA-N 37.1 µM | U-251 51.5 µM | SN12C > 10 µM | OVCAR-4 96.8 µM | DU-145 > 100 µM | OVCAR-3 57.9 µM | HL-60 16 µM | COLO 205 23.8 µM | SNB-75 25.6 µM | SF-295 46.9 µM | Malme-3M 64.9 µM | RXF 393 34.8 µM | CAKI-1 89.1 µM

Oc1c(Br)cc(Br)cc1CN(Cc1cc(Br)cc(Br)c1O)C1CCCCC1
inactive: SK-OV-3 44.6 µM | NCI/ADR-RES 39.9 µM | HOP-62 24.4 µM | NCI-H226 59.4 µM | MOLT-4 43.4 µM | MDA-N 35.9 µM | U-251 24.9 µM | SN12C 33.2 µM | OVCAR-4 46.9 µM | DU-145 38 µM | OVCAR-3 15.1 µM | COLO 205 14.7 µM | SNB-75 24.6 µM | SF-295 21.2 µM | Malme-3M 21.2 µM | RXF 393 31.3 µM | CAKI-1 34.9 µM
